This passage reports IC50 results from patent US9458153B2, “Dihydroquinolizinones for the treatment and prophylaxis of hepatitis B virus infection” (Hoffmann-La Roche Inc., priority 2014, dated 2016).

Counter-ions that a name gives are not always drawn.

One test deals with HBsAg. As to the kind of experiment: HBsAg assay (chemiluminescence immunoassay of secreted HBsAg in HepG2.2.15 culture supernatant). It counts as cell-based, HBV. The note with it: HBsAg secretion reduced by 50% vs no drug control; HepG2.2.15 cells; CLIA kit. Here is the method: HepG2.2.15 cells (Acs et al. Proc Natl Acad Sci USA, 84, (1987), 4641-4), a constitutively HBV-expressing cell line were cultured in DMEM+Glutamax-I medium (Invitrogen, Carlsbad, Calif., USA), supplemented with 10% fetal bovine serum (Invitrogen) and G418 (Invitrogen) at a final concentration of 200 mg/L and maintained in 5% CO2 at 37° C.
HepG2.2.15 cells were seeded in duplicate into white, 96-well plates at 1.5×10^4 cells/well. The cells were treated with a three-fold serial dilution series of the compounds in DMSO. The final DMSO concentration in all wells was 1% and DMSO was used as no drug control.
The HBsAg chemiluminescence immunoassay (CLIA) kit (Autobio Diagnostics Co., Zhengzhou, China, Catalog number: CL0310-2) was used to measure the levels of secreted HBV antigens semi-quantitatively. For the detection 50 μL/well culture supernatant was used and HBsAg was quantified using HBsAg chemiluminescence immunoassay (CLIA) kit (Autobio Diagnostics Co., Zhengzhou, China, Catalog number: CL0310-2), 50 μL of the supernatant was transferred to the CLIA assay plate and 50 μL of enzyme conjugate reagent was added into each well. The plates were sealed and gently agitated for 1 hour at room temperature. The supernatant-enzyme-mixture was discarded and wells were washed 6 times with 300 μL of PBS. The residual liquid was removed by plating the CLIA plate right side down on absorbent tissue paper. 25 μL of substrates A and B were added to each well. Luminance was measured using a luminometer (Mithras LB 940 Multimode Microplate Reader) after 10 minutes incubation. Dose-response curves were generated and the IC50 value was extrapolated by using the E-WorkBook Suite (ID Business Solutions Ltd., Guildford, UK).
The compounds of the present invention were tested for their capacity to inhibit HBsAg as described herein.
The compound `COc1cc2c(cc1OCCN1CCOCC1)CC(C(C)(C)C)n1cc(C(=O)O)c(=O)cc1-2` (single isomer, unassigned; (-)) [Example 191, (−)-6-tert-butyl-10-methoxy-9-(2-morpholinoethoxy)-2-oxo-6,7-dihydrobenzo[a]quinolizine-3-carboxylic acid] yielded an IC50 of 190 nM. Same read-out and setting: as for `CCC1Cc2cc(OCC(F)F)c(OC)cc2-c2cc(=O)c(C(=O)O)cn21` (single isomer, unassigned; (+)) [Example 46, (+)-9-(2,2-difluoroethoxy)-6-ethyl-10-methoxy-2-oxo-6,7-dihydrobenzo[a]quinolizine-3-carboxylic acid], the figure is 44 nM. Still for that read-out and setting: in the case of `CCC1Cc2cc(OCCOC)c(OC)cc2-c2cc(=O)c(C(=O)O)cn21` (single isomer, unassigned; (-)) [Example 29, (−)-6-ethyl-10-methoxy-9-(2-methoxyethoxy)-2-oxo-6,7-dihydrobenzo[a]quinolizine-3-carboxylic acid] it was 1950 nM; in that of `COc1cc2c(cc1OCC(C)(C)CO)CC(C(C)(C)C)n1cc(C(=O)O)c(=O)cc1-2` (single isomer, unassigned; (-)) [Example 151, (−)-6-tert-butyl-9-(3-hydroxy-2,2-dimethyl-propoxy)-10-methoxy-2-oxo-6,7-dihydrobenzo[a]quinolizine-3-carboxylic acid], 160 nM. Still for that read-out and setting: in the case of `COCCCOc1cc2c(cc1Cl)-c1cc(=O)c(C(=O)O)cn1C(C(C)C)C2` (single isomer, unassigned; (-)) [Example 122, (−)-10-chloro-6-isopropyl-9-(3-methoxypropoxy)-2-oxo-6,7-dihydrobenzo[a]quinolizine-3-carboxylic acid] it was 690 nM; in that of `COCCCOc1cc2c(cc1Cl)-c1cc(=O)c(C(=O)O)cn1C(C1(C)CC1)C2` (stereo not shown) [Example 205, 10-chloro-9-(3-methoxypropoxy)-6-(1-methylcyclopropyl)-2-oxo-6,7-dihydrobenzo[a]quinolizine-3-carboxylic acid], 1 nM. With `COc1cc2c(cc1OCCCCCO)CC(C(C)(C)C)n1cc(C(=O)O)c(=O)cc1-2` (single isomer, unassigned; (-)) [Example 154, (−)-6-tert-butyl-9-(5-hydroxypentoxy)-10-methoxy-2-oxo-6,7-dihydrobenzo[a]quinolizine-3-carboxylic acid], the IC50 was 120 nM. Still for that read-out and setting: as for `COc1cc2c(cc1OC)-c1cc(=O)c(C(=O)O)cn1C(C)C2` (single isomer, unassigned; (+)) [Example 67, (+)-9,10-dimethoxy-6-methyl-2-oxo-6,7-dihydrobenzo[a]quinolizine-3-carboxylic acid], the figure is 380 nM; as for `COCCCOc1cc2c(cc1Cl)-c1cc(=O)c(C(=O)O)cn1C(C1(C)CC1)C2` (single isomer, unassigned; (-)) [Example 207, (−)-10-chloro-9-(3-methoxypropoxy)-6-(1-methylcyclopropyl)-2-oxo-6,7-dihydrobenzo[a]quinolizine-3-carboxylic acid], 40 nM. `CCC1Cc2cc(OC)c(C3CC3)cc2-c2cc(=O)c(C(=O)O)cn21` (stereo not shown) [Example 89, 10-cyclopropyl-6-ethyl-9-methoxy-2-oxo-6,7-dihydrobenzo[a]quinolizine-3-carboxylic acid] gave a 50% inhibitory concentration (IC50) of 8 nM. Same read-out and setting: as for `CCC1Cc2cc(OCC3CCOCC3)c(OC)cc2-c2cc(=O)c(C(=O)O)cn21` (single isomer, unassigned; (+)) [Example 49, (+)-6-ethyl-10-methoxy-2-oxo-9-(tetrahydropyran-4-ylmethoxy)-6,7-dihydrobenzo[a]quinolizine-3-carboxylic acid], the figure is 15 nM.

Turning to `COc1cc2c(cc1OCCCCCCNC(=O)OC(C)(C)C)CC(C(C)(C)C)n1cc(C(=O)O)c(=O)cc1-2` (single isomer, unassigned; (+)) [Example 162, (+)-9-[6-(tert-butoxycarbonylamino)hexoxy]-6-tert-butyl-10-methoxy-2-oxo-6,7-dihydrobenzo[a]quinolizine-3-carboxylic acid], the IC50 was 2 nM. The same measure, in the same setting: in the case of `COCCOc1cc2c(cc1Cl)-c1cc(=O)c(C(=O)O)cn1C(CC(C)C)C2` (stereo not shown) [Example 104, 10-chloro-6-isobutyl-9-(2-methoxyethoxy)-2-oxo-6,7-dihydrobenzo[a]quinolizine-3-carboxylic acid] it was 18 nM; in that of `COc1cc2c(cc1OCCCCCCN)CC(C(C)(C)C)n1cc(C(=O)O)c(=O)cc1-2` (stereo not shown) [Example 160, 9-(6-aminohexoxy)-6-tert-butyl-10-methoxy-2-oxo-6,7-dihydrobenzo[a]quinolizine-3-carboxylic acid], 18 nM; in that of `CCC1Cc2cc(OCC(C)(C)CO)c(OC)cc2-c2cc(=O)c(C(=O)O)cn21` (stereo not shown) [Example 22, 6-ethyl-9-(3-hydroxy-2,2-dimethyl-propoxy)-10-methoxy-2-oxo-6,7-dihydrobenzo[a]quinolizine-3-carboxylic acid], 39 nM.

`COc1cc2c(cc1OCCCCCO)CC(C(C)(C)C)n1cc(C(=O)O)c(=O)cc1-2` (stereo not shown) [Example 152, 6-tert-butyl-9-(5-hydroxypentoxy)-10-methoxy-2-oxo-6,7-dihydrobenzo[a]quinolizine-3-carboxylic acid] returned an IC50 of 2 nM. On the same count and under the same terms, in the case of `COc1cc2c(cc1OCCCS(C)(=O)=O)CC(C(C)(C)C)n1cc(C(=O)O)c(=O)cc1-2` (single isomer, unassigned; (+)) [Example 187, (+)-6-tert-butyl-10-methoxy-9-(3-methylsulfonylpropoxy)-2-oxo-6,7-dihydrobenzo[a]quinolizine-3-carboxylic acid] it was 13 nM.

Turning to `COCCCOc1cc2c(cc1OC)-c1cc(=O)c(C(=O)O)cn1C(C(C)(C)C)C2` (single isomer, unassigned; (-)) [Example 133, (−)-6-tert-butyl-10-methoxy-9-(3-methoxypropoxy)-2-oxo-6,7-dihydrobenzo[a]quinolizine-3-carboxylic acid], 330 nM corresponded to half-maximal inhibition (IC50).

The test is the same for the next values; noted with them: HBsAg secretion reduced by 50% vs no drug control; HepG2.2.15 cells; CLIA kit; hydrochloride.
`COc1cc2c(cc1OCCCCCCN)CC(C(C)(C)C)n1cc(C(=O)O)c(=O)cc1-2` (single isomer, unassigned; (-)) [Example 165, (−)-9-(6-aminohexoxy)-6-tert-butyl-10-methoxy-2-oxo-6,7-dihydrobenzo[a]quinolizine-3-carboxylic acid hydrochloride] yielded an IC50 of 1550 nM.

The test is the same for the next values; noted with them: Hepatitis B virus, HepG2.2.15, HBsAg secretion reduced by 50% vs no drug control; HepG2.2.15 cells; CLIA kit.
Regarding `COCCOc1cc2c(cc1F)-c1cc(=O)c(C(=O)O)cn1C(C(C)C)C2` (stereo not shown) [Example 110, 10-fluoro-6-isopropyl-9-(2-methoxyethoxy)-2-oxo-6,7-dihydrobenzo[a]quinolizine-3-carboxylic acid], half-maximal inhibition (IC50) required 52 nM. Same read-out and setting: in the case of `COc1cc2c(cc1OCCCn1cncn1)CC(C(C)(C)C)n1cc(C(=O)O)c(=O)cc1-2` (stereo not shown) [Example 217, 6-tert-butyl-10-methoxy-2-oxo-9-[3-(1,2,4-triazol-1-yl)propoxy]-6,7-dihydrobenzo[a]quinolizine-3-carboxylic acid] it was 34 nM; in that of `CCOc1ccc(Br)c2c1-c1cc(=O)c(C(=O)O)cn1C(CC)C2` (stereo not shown) [Example 94, 8-bromo-11-ethoxy-6-ethyl-2-oxo-6,7-dihydrobenzo[a]quinolizine-3-carboxylic acid], 410 nM; in that of `CCOc1cc2c(cc1OCC)-c1cc(=O)c(C(=O)O)cn1C(C)C2` (stereo not shown) [Example 74, 9,10-diethoxy-6-methyl-2-oxo-6,7-dihydrobenzo[a]quinolizine-3-carboxylic acid], 140 nM. In the case of `COc1cc2c(cc1Cl)-c1cc(=O)c(C(=O)O)cn1C(C)C2` (stereo not shown) [Example 65, 10-chloro-9-methoxy-6-methyl-2-oxo-6,7-dihydrobenzo[a]quinolizine-3-carboxylic acid], half-maximal inhibition (IC50) was put at 320 nM. Compound `CCC1Cc2cc(OCCCO)c(OC)cc2-c2cc(=O)c(C(=O)O)cn21` (stereo not shown) [Example 25, 6-ethyl-9-(3-hydroxypropoxy)-10-methoxy-2-oxo-6,7-dihydrobenzo[a]quinolizine-3-carboxylic acid] had a 50% inhibitory concentration (IC50) of 155 nM.

The compound `COc1cc2c(cc1OC)-c1cc(=O)c(C(=O)O)cn1C(Cc1ccccc1)C2` (stereo not shown) [Example 211, 6-benzyl-9,10-dimethoxy-2-oxo-6,7-dihydrobenzo[a]quinolizine-3-carboxylic acid] returned a concentration for half-maximal inhibition (IC50) of 8250 nM.

On to `CCC1Cc2cc(Br)c(OC)cc2-c2cc(=O)c(C(=O)O)cn21` (stereo not shown) [Example 92, 9-bromo-6-ethyl-10-methoxy-2-oxo-6,7-dihydrobenzo[a]quinolizine-3-carboxylic acid], for which the IC50 came to 230 nM.

`COc1cc2c(cc1OCC(F)(F)CO)CC(C(C)(C)C)n1cc(C(=O)O)c(=O)cc1-2` (stereo not shown) [Example 141, 6-tert-butyl-9-(2,2-difluoro-3-hydroxy-propoxy)-10-methoxy-2-oxo-6,7-dihydrobenzo[a]quinolizine-3-carboxylic acid] displayed an IC50 of 7 nM.
